Measured values taken from the supplement of paper PMC10733146.

Key:
Experiment in all cases: viability relative to DMSO control (fraction); higher = less drug effect (more viable cells)
Settings in all cases: 48 h
Pralatrexate = compound: C#CCC(Cc1cnc2nc(N)nc(N)c2n1)c1ccc(C(=O)N[C@@H](CCC(=O)O)C(=O)O)cc1 [Pralatrexate]
Procedure, shortened: (§1)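 Compounds were pre-plated at five concentrations, one well each, in 384-well plates, and primary mononuclear tumour cells were plated on them at 4 × 10^4 cells per well. The cells, fresh or cryopreserved, had been Ficoll-isolated from blood or bone marrow or taken from processed lymph node. After 48 h at 37 °C and 5% CO2 in RPMI-1640 with penicillin/streptomycin, L-glutamine and human serum, viability was read as CellTiter-Glo luminescence relative to the median of 16 inner DMSO wells.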

Pacritinib = compound: C1=N/C2=N/c3ccc(OCCN4CCCC4)c(c3)COC/C=C/COCc3cccc(c3)C(=C1)N2 [Pacritinib]
Procedure, shortened: as §1

Carfilzomib = compound: CC(C)C[C@H](NC(=O)[C@H](CCc1ccccc1)NC(=O)CN1CCOCC1)C(=O)N[C@@H](Cc1ccccc1)C(=O)N[C@@H](CC(C)C)C(=O)[C@@]1(C)CO1 [Carfilzomib]
Procedure, shortened: as §1

ERK5-IN-1 = compound: CCOc1cc(C(=O)N2CCC(N3CCN(C)CC3)CC2)ccc1Nc1ncc2c(n1)N(C1CCCC1)c1ccccc1C(=O)N2C [ERK5-IN-1]
Procedure, shortened: as §1

Birinapant = compound: CC[C@H](NC(=O)[C@H](C)NC)C(=O)N1C[C@@H](O)C[C@H]1Cc1c(-c2[nH]c3cc(F)ccc3c2C[C@@H]2C[C@H](O)CN2C(=O)[C@H](CC)NC(=O)[C@H](C)NC)[nH]c2cc(F)ccc12 [Birinapant]
Procedure, shortened: as §1

Vincristine = compound: CC[C@]1(O)C[C@H]2CN(CCc3c([nH]c4ccccc34)[C@@](C(=O)OC)(c3cc4c(cc3OC)N(C=O)[C@H]3[C@@](O)(C(=O)OC)[C@H](OC(C)=O)[C@]5(CC)C=CCN6CC[C@]43[C@@H]65)C2)C1 [Vincristine]
Procedure, shortened: as §1

Ribociclib = compound: CN(C)C(=O)c1cc2cnc(Nc3ccc(N4CCNCC4)cn3)nc2n1C1CCCC1 [Ribociclib]
Procedure, shortened: as §1

Obatoclax mesylate = compound: COC1=CC(c2cc3ccccc3[nH]2)=N/C1=C\c1[nH]c(C)cc1C [Obatoclax mesylate]
Procedure, shortened: as §1

MLN-120B = compound: COc1c(Cl)cc2c([nH]c3cnccc32)c1NC(=O)c1cccnc1C [MLN-120B]
Procedure, shortened: as §1

Tozasertib = compound: Cc1cc(Nc2cc(N3CCN(C)CC3)nc(Sc3ccc(NC(=O)C4CC4)cc3)n2)n[nH]1 [Tozasertib]
Procedure, shortened: as §1

Nilotinib = compound: Cc1cn(-c2cc(NC(=O)c3ccc(C)c(Nc4nccc(-c5cccnc5)n4)c3)cc(C(F)(F)F)c2)cn1 [Nilotinib]
Procedure, shortened: as §1

AZD7762 = compound: NC(=O)Nc1cc(-c2cccc(F)c2)sc1C(=O)N[C@H]1CCCNC1 [AZD7762]
Procedure, shortened: as §1

Vorinostat = compound: O=C(CCCCCCC(=O)Nc1ccccc1)NO [Vorinostat]
Procedure, shortened: as §1

[1] = compound: OCc1ccc(-c2ccc(-c3ccc(CO)s3)o2)s1
Procedure, shortened: as §1

primary MCL patient cells (S068)
viability (Pralatrexate; 0.024 µM): 1.03
viability (Pralatrexate; 0.12 µM): 1.01
viability (Pralatrexate; 0.6 µM): 1.03
viability (Pralatrexate; 3 µM): 0.965
viability (Pralatrexate; 15 µM): 0.99
viability (Pacritinib; 0.024 µM): 0.959
viability (Pacritinib; 0.12 µM): 0.951
viability (Pacritinib; 0.6 µM): 0.968
viability (Pacritinib; 3 µM): 0.717
viability (Pacritinib; 15 µM): 0.0216
viability (Carfilzomib; 0.00016 µM): 0.897
viability (Carfilzomib; 0.0008 µM): 0.257
viability (Carfilzomib; 0.004 µM): 0.0483
viability (Carfilzomib; 0.02 µM): 0.0291
viability (Carfilzomib; 0.1 µM): 0.0301
viability (ERK5-IN-1; 0.024 µM): 0.883
viability (ERK5-IN-1; 0.12 µM): 0.815
viability (ERK5-IN-1; 0.6 µM): 0.478
viability (ERK5-IN-1; 3 µM): 0.269
viability (ERK5-IN-1; 15 µM): 0.181
viability (Birinapant; 0.0008 µM): 0.868
viability (Birinapant; 0.004 µM): 0.758
viability (Birinapant; 0.02 µM): 0.663
viability (Birinapant; 0.1 µM): 0.55
viability (Birinapant; 0.5 µM): 0.489
viability (Vincristine; 0.016 µM): 0.473
viability (Vincristine; 0.08 µM): 0.413
viability (Vincristine; 0.4 µM): 0.357
viability (Vincristine; 2 µM): 0.28
viability (Vincristine; 10 µM): 0.253
viability (Ribociclib; 0.024 µM): 0.848
viability (Ribociclib; 0.12 µM): 0.868
viability (Ribociclib; 0.6 µM): 0.645
viability (Ribociclib; 3 µM): 0.487
viability (Ribociclib; 15 µM): 0.362
viability (Obatoclax mesylate; 0.024 µM): 1.07
viability (Obatoclax mesylate; 0.12 µM): 2.64
viability (Obatoclax mesylate; 0.6 µM): 5.84
viability (Obatoclax mesylate; 3 µM): 4.5
viability (Obatoclax mesylate; 15 µM): 1.46
viability (MLN-120B; 0.024 µM): 0.885
viability (MLN-120B; 0.12 µM): 0.872
viability (MLN-120B; 0.6 µM): 0.853
viability (MLN-120B; 3 µM): 0.751
viability (MLN-120B; 15 µM): 0.593
viability (Tozasertib; 0.024 µM): 0.961
viability (Tozasertib; 0.12 µM): 0.895
viability (Tozasertib; 0.6 µM): 0.845
viability (Tozasertib; 3 µM): 0.725
viability (Tozasertib; 15 µM): 0.684
viability (Nilotinib; 0.016 µM): 1.16
viability (Nilotinib; 0.08 µM): 1.08
viability (Nilotinib; 0.4 µM): 1.14
viability (Nilotinib; 2 µM): 1.09
viability (Nilotinib; 10 µM): 1.27
viability (AZD7762; 0.024 µM): 0.688
viability (AZD7762; 0.12 µM): 0.491
viability (AZD7762; 0.6 µM): 0.369
viability (AZD7762; 3 µM): 0.248
viability (AZD7762; 15 µM): 0.374
viability (Vorinostat; 0.016 µM): 1.1
viability (Vorinostat; 0.08 µM): 1.04
viability (Vorinostat; 0.4 µM): 0.459
viability (Vorinostat; 2 µM): 0.167
viability (Vorinostat; 10 µM): 0.121
viability ([1]; 0.024 µM): 0.705
viability ([1]; 0.12 µM): 0.693
viability ([1]; 0.6 µM): 0.701
viability ([1]; 3 µM): 0.743
viability ([1]; 15 µM): 0.348

primary T-PLL patient cells (S008)
viability (Pralatrexate; 0.024 µM): 1.09
viability (Pralatrexate; 0.12 µM): 0.978
viability (Pralatrexate; 0.6 µM): 0.965
viability (Pralatrexate; 3 µM): 0.982
viability (Pralatrexate; 15 µM): 0.971
viability (Pacritinib; 0.024 µM): 1.02
viability (Pacritinib; 0.12 µM): 1.11
viability (Pacritinib; 0.6 µM): 1.03
viability (Pacritinib; 3 µM): 0.86
viability (Pacritinib; 15 µM): 0.0403
viability (Carfilzomib; 0.00016 µM): 0.997
viability (Carfilzomib; 0.0008 µM): 0.434
viability (Carfilzomib; 0.004 µM): 0.0161
viability (Carfilzomib; 0.02 µM): 0.0168
viability (Carfilzomib; 0.1 µM): 0.0205
viability (ERK5-IN-1; 0.024 µM): 0.932
viability (ERK5-IN-1; 0.12 µM): 0.957
viability (ERK5-IN-1; 0.6 µM): 0.985
viability (ERK5-IN-1; 3 µM): 0.958
viability (ERK5-IN-1; 15 µM): 0.754
viability (Birinapant; 0.0008 µM): 0.887
viability (Birinapant; 0.004 µM): 0.915
viability (Birinapant; 0.02 µM): 0.925
viability (Birinapant; 0.1 µM): 0.897
viability (Birinapant; 0.5 µM): 0.91
viability (Vincristine; 0.016 µM): 0.66
viability (Vincristine; 0.08 µM): 0.34
viability (Vincristine; 0.4 µM): 0.269
viability (Vincristine; 2 µM): 0.22
viability (Vincristine; 10 µM): 0.164
viability (Ribociclib; 0.024 µM): 1.04
viability (Ribociclib; 0.12 µM): 1.03
viability (Ribociclib; 0.6 µM): 1.05
viability (Ribociclib; 3 µM): 1.01
viability (Ribociclib; 15 µM): 0.902
viability (Obatoclax mesylate; 0.024 µM): 1.02
viability (Obatoclax mesylate; 0.12 µM): 0.899
viability (Obatoclax mesylate; 0.6 µM): 0.718
viability (Obatoclax mesylate; 3 µM): 0.563
viability (Obatoclax mesylate; 15 µM): 0.175
viability (MLN-120B; 0.024 µM): 1.03
viability (MLN-120B; 0.12 µM): 1.01
viability (MLN-120B; 0.6 µM): 1.03
viability (MLN-120B; 3 µM): 1
viability (MLN-120B; 15 µM): 0.963
viability (Tozasertib; 0.024 µM): 0.977
viability (Tozasertib; 0.12 µM): 0.957
viability (Tozasertib; 0.6 µM): 0.974
viability (Tozasertib; 3 µM): 0.933
viability (Tozasertib; 15 µM): 0.948
viability (Nilotinib; 0.016 µM): 1.09
viability (Nilotinib; 0.08 µM): 1.02
viability (Nilotinib; 0.4 µM): 1.11
viability (Nilotinib; 2 µM): 1.01
viability (Nilotinib; 10 µM): 1.06
viability (AZD7762; 0.024 µM): 0.989
viability (AZD7762; 0.12 µM): 1.03
viability (AZD7762; 0.6 µM): 0.963
viability (AZD7762; 3 µM): 0.971
viability (AZD7762; 15 µM): 0.933
viability (Vorinostat; 0.016 µM): 1.01
viability (Vorinostat; 0.08 µM): 0.989
viability (Vorinostat; 0.4 µM): 1.07
viability (Vorinostat; 2 µM): 0.984
viability (Vorinostat; 10 µM): 0.851
viability ([1]; 0.024 µM): 0.894
viability ([1]; 0.12 µM): 0.961
viability ([1]; 0.6 µM): 0.855
viability ([1]; 3 µM): 0.776
viability ([1]; 15 µM): 0.246
